In BigSolDB 2.1:

O=C1NS(=O)(=O)c2ccccc21
solubility (mole fraction)
Settings | 278.15 K | 283.15 K | 288.15 K | 293.15 K | 298.15 K | 303.15 K | 308.15 K | 313.15 K | 318.15 K | 323.15 K
in acetone | 0.0222 | 0.025 | 0.0286 | 0.0326 | 0.0374 | 0.0422 | 0.0484 | 0.0554 | 0.0635 | 0.071
in ethanol | 0.00486 | 0.00578 | 0.00686 | 0.00814 | 0.00964 | 0.0114 | 0.0134 | 0.0158 | 0.019 | 0.0231
in ethyl acetate | 0.00883 | 0.0111 | 0.0139 | 0.0169 | 0.0203 | 0.0241 | 0.0287 | 0.0342 | 0.0401 | 0.0474
in isobutanol | 0.00181 | 0.00222 | 0.00279 | 0.00355 | 0.00433 | 0.00538 | 0.00654 | 0.00791 | 0.00953 | 0.0114
in isopropanol | 0.00382 | 0.0045 | 0.00532 | 0.00632 | 0.00752 | 0.00895 | 0.0106 | 0.0126 | 0.015 | 0.0181
in methanol | 0.00542 | 0.00665 | 0.00806 | 0.00969 | 0.0115 | 0.0135 | 0.0157 | 0.0185 | 0.0217 | 0.0257
in n-propanol | 0.00311 | 0.00369 | 0.00439 | 0.00526 | 0.00621 | 0.00756 | 0.00902 | 0.0109 | 0.0129 | 0.0157
